Results published in US10470993B2, “Tooth remineralization compositions and methods” (priority 2013, dated 2019).

Test system: S. mutans
Type: cell-based
Experimental: Chitosan is a known antimicrobial. The antimicrobial activities of chitosans were determined with XTT assay based on the measurement of bacterial metabolic activities. The bacteria include S. sanguis, S. fecalis, and S. mutans. […] The metabolic activity and viability of S. mutans was decreased with the increase of the molecular weight of chitosan from 1K to 10K, as shown in FIG. 3. […] The relative viability of S. mutans treated with chitosan 10K was only about 10% as compared to the control. […] The chitosan with molecular weight of 10K reached the greatest inhibition effect against S. mutans in our XTT assay.
The antimicrobial activity of chitosan 10K was tested on three different oral bacteria which are major bacteria responsible for the occurrence of dental caries. […] The antimicrobial effects are concentration dependent and increased with increased chitosan concentration.

Substance	relative viability of S. mutans as compared to the control
chitosan [chitosan 5K]	55%
chitosan [chitosan 10K]	about 10%
